Test results published in patent US8912169B2, “Beta-lactamase inhibitors” (VenatoRx Pharmaceuticals, Inc., priority 2012, dated 2014).

Tests used:
Assay type in all cases: biochemical
[1] = target: T1, VIM-2 (Escherichia coli, UniProt Q5U7L7); test: β-lactamase enzyme inhibition, VIM-2; conditions: substrate Nitrocefin 100 μM, 486 nm; read-out: Class B VIM-2 IC50
T1 construct: made in house; host or cells: E. coli BL21(DE3)
Protocol: For Vim-2 metallo β-lactamase, the procedure was identical with the following exceptions, first the protein was not pH adjusted to pH 5 with 50 mM sodium acetate, second, the chromatography step was changed to a 5 ml Q sepharose anion exchange column pre-equilibrated with 50 mM Hepes pH 7.5, and elution of the protein was achieved by a linear gradient of NaCl (0-600 mM). Finally, the VIM-2 purification required a second run (3rd step) on the Q sepharose anion exchange column to achieve acceptable purity (>90%).
(§1) An equal volume of diluted enzyme stock was added, and the plates were incubated at 37° C. for 15 min. Nitrocefin was used as substrate for p99 AmpC, VIM-2 and OXA-1 and dispensed into each well at a final concentration of 100 μM. Absorbance at 486 nm was immediately monitored for 10 min using a Biotek Powerwave XS2 microplate spectrophotometer using the GENS software package (Biotek Instruments, Winooski Vt.). In an analogous fashion, imipenem was used as substrate for Kpc-2 and Cefotaxime was used for SHV-5, while changes in absorbance upon hydrolysis of the β-lactam ring were monitored at 300 nm and 260 nm respectively in UV-transparent 96-well microtiter assay plates. Maximum rates of hydrolysis were compared to those in control wells (without inhibitors), and percentages of enzyme inhibition were calculated for each concentration of inhibitor. The concentration of inhibitor needed to reduce the initial rate of hydrolysis of substrate by 50% (IC50) was calculated as the residual activity of β-lactamase at 486 nm using GraFit version 7 kinetics software package (Erithacus Software, Surrey, UK).
(§2) Using the methodology described above, examples of the current invention were evaluated for their ability to inhibit β-lactamase enzymes from all four Ambler classifications (A through D). […] NT=Not tested.

[2] = target: T2, p99 AmpC (Enterobacter cloacae, UniProt P05364); test: β-lactamase enzyme inhibition, p99 AmpC
T2 construct: made in house; host or cells: E. coli BL21(DE3)
Protocol: (§3) For SHV-5, Kpc-2, p99AmpC and OXA-1 β-lactamases, E. coli BL21(DE3) bacterial cells carrying expression plasmids (expressed as native untagged proteins) for the individual β-lactamases were grown in 1 L of Superbroth (Teknova Inc. Hollister, Calif.) supplemented with 100 μg/mlkanamycin selection and 1×5052 (0.5% glycerol, 0.05% glucose and 0.2% α-lactose) at 35° C. for 18-20 hours. Cells were harvested by centrifugation (4,000×g, 4° C., 20 min), resuspended in 50 ml of 10 mM HEPES pH 7.5 ( 1/20 of the initial volume). The cells were lysed by sonication (5 pulses of 45 seconds) at 45 W on ice. The lysates were clarified by centrifugation at 10,000×g for 40 minutes at 4° C. Samples were diluted 5-fold in 50 mM sodium acetate pH 5.0, stored overnight at 4° C., after which they were centrifuged at 10,000×g for 30 minutes to clarify, and filtered through 0.45 μm filters. The samples were loaded onto a 5 ml Capto S sepharose cation exchange column (GE Healthcare) pre-equilibrated with 50 mM sodium acetate pH 5.0. The column was washed with 5 column volumes of 50 mM sodium acetate pH 5.0 to wash out unbound protein and a linear gradient of NaCl (0 to 500 mM) was used to elute the protein (over 16 CV) from the column. Fractions were assayed for β-lactamase activity using Centa (Calbiochem, Gibbstown, N.J.) or Nitrocefin (EMD Millipore chemicals, Darmstadt, Germany) as a reporter β-lactamase substrate for activity in the isolated fractions. Active fractions were pooled, concentrated and further purified by gel filtration chromatography on a Superdex 75 prep grade gel filtration column (GE Healthcare, Piscataway, N.J.) pre-equilibrated in 50 mM Hepes pH 7.5, 150 mM NaCl. Active fractions were pooled concentrated, quantitated by BCA protein determination (Thermo Scientific, Rockford, Ill.), dialyzed into PBS and frozen at −80° C. in 20% glycerol until use.
as §1, §2

[3] = target: T3, OXA-1 (Escherichia coli, UniProt P13661); test: β-lactamase enzyme inhibition, OXA-1; conditions: substrate Nitrocefin 100 μM, 486 nm; read-out: Class D OXA-1 IC50
T3 construct: made in house; host or cells: E. coli BL21(DE3)
Protocol: as §3, §1, §2

[4] = target: T4, KPC-2 (Klebsiella pneumoniae, UniProt Q9F663); test: β-lactamase enzyme inhibition, KPC-2; conditions: substrate imipenem, 300 nm; read-out: Class A KPC-2 IC50
T4 construct: made in house; host or cells: E. coli BL21(DE3)
Protocol: as §3, §1, §2

[5] = target: T5, SHV-5 (Klebsiella pneumoniae, UniProt P0A3M1); test: β-lactamase enzyme inhibition, SHV-5
T5 construct: made in house; host or cells: E. coli BL21(DE3)
Protocol: as §3, §1, §2

Row | SMILES | IC50 [1] [nM] | IC50 [2] [nM] | IC50 [3] [nM] | IC50 [4] [nM] | IC50 [5] [nM]
1 | N[C@H]1CC(CC(=O)N[C@H]2Cc3cccc(C(=O)O)c3OB2O)C[C@@H]1N [Example 37] | 100 to 1000 | < 100 | < 100 | < 100 | 1000 to 10000
2 | CC(NC(=O)C1C[C@H](N)[C@@H](N)C1)C(=O)N[C@H]1Cc2cccc(C(=O)O)c2OB1O (stereo partly drawn) [Example 38] | 100 to 1000 | < 100 | 100 to 1000 | 100 to 1000 | < 100
3 | O=C(C[C@H]1CC[C@H](NCc2nccs2)CC1)N[C@H]1Cc2cccc(C(=O)O)c2OB1O [Example 39] | 1000 to 10000 | < 100 | < 100 | < 100 | < 100
4 | O=C(CC1CCC(N2CCOCC2)CC1)N[C@H]1Cc2cccc(C(=O)O)c2OB1O (stereo partly drawn) [Example 40, (R)-2-hydroxy-3-(2-(4-morpholinocyclohexyl)acetamido)-3,4-dihydro-2H-benzo[e][1,2]oxaborinine-8-carboxylic acid] | < 100 | < 100 | < 100 | < 100 | 100 to 1000
5 | N[C@@H](C(=O)N[C@H]1Cc2cccc(C(=O)O)c2OB1O)C1CCCCC1 [Example 42, (R)-3-((R)-2-amino-2-cyclohexylacetamido)-2-hydroxy-3,4-dihydro-2H-benzo[e][1,2]oxaborinine-8-carboxylic acid] | 1000 to 10000 | < 100 | 100 to 1000 | < 100 | 100 to 1000
6 | NCCNC1CCC(O)(CC(=O)N[C@H]2Cc3cccc(C(=O)O)c3OB2O)CC1 (stereo partly drawn) [Example 43, 3-{2-[4-(2-Amino-ethylamino)-1-hydroxy-cyclohexyl]-acetylamino}-2-hydroxy-3,4-dihydro-2H-benzo[e][1,2]oxaborinine-8-carboxylic acid] | < 100 | < 100 | < 100 | < 100 | < 100
7 | NC1CCC(O)(CC(=O)N[C@H]2Cc3cccc(C(=O)O)c3OB2O)CC1 (stereo partly drawn) [Example 44, 3-[2-(4-Amino-1-hydroxy-cyclohexyl)-acetylamino]-2-hydroxy-3,4-dihydro-2H-benzo[e][1,2]oxaborinine-8-carboxylic acid] | 1000 to 10000 | 100 to 1000 | 100 to 1000 | 100 to 1000 | 100 to 1000
8 | N[C@H]1CC[C@H](NCC(=O)N[C@H]2Cc3cccc(C(=O)O)c3OB2O)CC1 [Example 45, 3-[2-(4-Amino-cyclohexylamino)-acetylamino]-2-hydroxy-3,4-dihydro-2H-benzo[e][1,2]oxaborinine-8-carboxylic acid] | 1000 to 10000 | < 100 | 100 to 1000 | < 100 | < 100
9 | NCCN[C@H]1CC[C@@H](CC(=O)N[C@H]2Cc3cccc(C(=O)O)c3OB2O)CC1 [Example 46, (R)-3-(2-(cis-4-(2-aminoethylamino)cyclohexyl)acetamido)-2-hydroxy-3,4-dihydro-2H-benzo[e][1,2]oxaborinine-8-carboxylic acid] | 100 to 1000 | < 100 | < 100 | < 100 | 100 to 1000
10 | O=C(C[C@H]1CC[C@H](NCCNc2ccccn2)CC1)N[C@H]1Cc2cccc(C(=O)O)c2OB1O [Example 48, (R)-2-hydroxy-3-(2-(trans-4-(2-(pyridin-2-ylamino)ethylamino)cyclohexyl)acetamido)-3,4-dihydro-2H-benzo[e][1,2]oxaborinine-8-carboxylic acid] | 100 to 1000 | < 100 | < 100 | < 100 | < 100
11 | CS(=O)(=O)NCCN[C@H]1CC[C@H](CC(=O)N[C@H]2Cc3cccc(C(=O)O)c3OB2O)CC1 [Example 49, (R)-2-hydroxy-3-(2-(trans-4-(2-(methylsulfonamido)ethylamino)cyclohexyl)acetamido)-3,4-dihydro-2H-benzo[e][1,2]oxaborinine-8-carboxylic acid] | 100 to 1000 | < 100 | < 100 | < 100 | < 100
12 | NCCN[C@H]1CC[C@H](CC(=O)N[C@@H]2Cc3cccc(C(=O)O)c3OB2O)CC1 [Example 50, (S)-3-(2-(trans-4-(2-aminoethylamino)cyclohexyl)acetamido)-2-hydroxy-3,4-dihydro-2H-benzo[e][1,2]oxaborinine-8-carboxylic acid] | 100 to 1000 | 100 to 1000 | 100 to 1000 | 100 to 1000 | 100 to 1000
13 | CNCCN[C@H]1CC[C@H](CC(=O)N[C@H]2Cc3cccc(C(=O)O)c3OB2O)CC1 [Example 51, (R)-2-hydroxy-3-(2-(trans-4-(2-(methylamino)ethylamino)cyclohexyl)acetamido)-3,4-dihydro-2H-benzo[e][1,2]oxaborinine-8-carboxylic acid] | < 100 | < 100 | < 100 | < 100 | < 100
14 | CN1CCN([C@H]2CC[C@H](CC(=O)N[C@H]3Cc4cccc(C(=O)O)c4OB3O)CC2)C1=N [Example 52, (R)-2-hydroxy-3-(2-(trans-4-(2-imino-3-methylimidazolidin-1-yl)cyclohexyl)acetamido)-3,4-dihydro-2H-benzo[e][1,2]oxaborinine-8-carboxylic acid] | 10000 to 100000 | < 100 | < 100 | < 100 | < 100
15 | C[C@H](N)CN[C@H]1CC[C@H](CC(=O)N[C@H]2Cc3cccc(C(=O)O)c3OB2O)CC1 [Example 53, (R)-3-(2-(trans-4-((S)-2-aminopropylamino)cyclohexyl)acetamido)-2-hydroxy-3,4-dihydro-2H-benzo[e][1,2]oxaborinine-8-carboxylic acid] | < 100 | < 100 | < 100 | < 100 | < 100
16 | COC(=O)NCCN[C@H]1CC[C@H](CC(=O)N[C@H]2Cc3cccc(C(=O)O)c3OB2O)CC1 [Example 54, (R)-2-hydroxy-3-(2-(trans-4-(2-(methoxycarbonylamino)ethylamino)cyclohexyl)acetamido)-3,4-dihydro-2H-benzo[e][1,2]oxaborinine-8-carboxylic acid] | 100 to 1000 | 100 to 1000 | < 100 | < 100 | < 100
17 | NCCNC1CC(CC(=O)N[C@H]2Cc3cccc(C(=O)O)c3OB2O)C1 (stereo partly drawn) [Example 55, (R)-3-(2-(3-(2-aminoethylamino)cyclobutyl)acetamido)-2-hydroxy-3,4-dihydro-2H-benzo[e][1,2]oxaborinine-8-carboxylic acid] | < 100 | < 100 | < 100 | < 100 | < 100
18 | NC1CC(CC(=O)N[C@H]2Cc3cccc(C(=O)O)c3OB2O)C1 (stereo partly drawn) [Example 56, (R)-3-(2-(3-aminocyclobutyl)acetamido)-2-hydroxy-3,4-dihydro-2H-benzo[e][1,2]oxaborinine-8-carboxylic acid] | 100 to 1000 | < 100 | < 100 | < 100 | 100 to 1000
